Calls of active or inactive are those of the source. No cut-off for these calls is given here.
Tests used:
Brugia malayi [1] = assay: Antifilarial activity against Brugia malayi isolated from jird assessed as inhibition of MTT reduction at 100 uM after 1 hr; assay type: functional
[2] = system: GST (glutathione S-transferase); assay: Inhibition of GST in Mus musculus (mouse) liver using CDNB as substrate at 100 uM after 10 min by spectrophotometric analysis relative to control; assay type: tissue-based; conditions: probe CDNB
Brugia malayi [3] = assay: Antifilarial activity against Brugia malayi isolated from jird assessed as motility at 100 uM after 24 hr by dissecting microscopy; assay type: functional, organism-based
[4] = Stimulation of GST in Mus musculus (mouse) liver using CDNB as substrate at 100 uM after 10 min by spectrophotometric analysis relative to control; assay type: ADME, tissue-based

SMILES: CO[C@@H]1[C@H]2OC(C)(C)O[C@H]2O[C@@H]1C1CC(=O)N(c2cccc(C#N)c2)C(=O)N1Cc1ccc(Br)cc1 (stereo not given in full)
- inhibition at 100 µM (Brugia malayi [1]): 37%
- inhibition at 10 min, 100 µM [2]: 19%
- Activity (Brugia malayi [3]): inactive

SMILES: COc1ccc(CN2C(=O)N(Cc3ccccc3)C(=O)CC2[C@H]2O[C@@H]3OC(C)(C)O[C@@H]3[C@H]2OCc2ccccc2)cc1 (stereo not given in full)
- Activity (Brugia malayi [3]): inactive

SMILES: CCOC(=O)CC(NC(=O)[C@@H](N)C(C)C)C1O[C@H]2OC(C)(C)O[C@H]2[C@@H]1OC (stereo not given in full)
- Activity [4]: 20%
- Activity (Brugia malayi [3]): Active

SMILES: COc1ccc(CN2C(=O)N(c3cccc(C#N)c3)C(=O)CC2[C@H]2O[C@@H]3OC(C)(C)O[C@@H]3[C@H]2OC)cc1 (stereo not given in full)
- inhibition at 100 µM (Brugia malayi [1]): 34%
- inhibition at 10 min, 100 µM [2]: 20%
- Activity (Brugia malayi [3]): inactive

SMILES: CC1(C)O[C@H]2O[C@H](C3CC(=O)N(Cc4ccccc4)C(=O)N3Cc3ccc(Br)cc3)[C@H](OCc3ccccc3)[C@H]2O1 (stereo not given in full)
- inhibition at 100 µM (Brugia malayi [1]): 24%
- Activity (Brugia malayi [3]): inactive

SMILES: CO[C@@H]1[C@H]2OC(C)(C)O[C@H]2O[C@@H]1C1CC(=O)N(Cc2ccccc2)C(=O)N1Cc1ccccc1 (stereo not given in full)
- Activity (Brugia malayi [3]): inactive

SMILES: CCCCN(C(=S)Nc1ccccc1Cl)C(CC(=O)OCC)C1O[C@H]2OC(C)(C)O[C@H]2[C@@H]1OC (stereo not given in full)
- Activity [4]: 38%
- Activity (Brugia malayi [3]): Active

SMILES: CCOC(=O)CC(NC(=O)[C@@H]1CCCN1)C1O[C@H]2OC(C)(C)O[C@H]2[C@@H]1OC (stereo not given in full)
- Activity [4]: 28%
- Activity (Brugia malayi [3]): Active

SMILES: CO[C@@H]1[C@H]2OC(C)(C)O[C@H]2O[C@@H]1C1CC(=O)N(c2ccc(F)cc2)C(=O)N1c1ccco1 (stereo not given in full)
- inhibition at 100 µM (Brugia malayi [1]): 70%
- Activity (Brugia malayi [3]): inactive

SMILES: COc1ccc(CN2C(=O)N(c3cc(Cl)cc(Cl)c3)C(=O)CC2[C@H]2O[C@@H]3OC(C)(C)O[C@@H]3[C@H]2OCc2ccccc2)cc1 (stereo not given in full)
- Activity [4]: 12%
- inhibition at 100 µM (Brugia malayi [1]): 92%
- Activity (Brugia malayi [3]): inactive

SMILES: CCCCN1C(=S)N(c2ccccc2Cl)C(=O)CC1[C@H]1O[C@@H]2OC(C)(C)O[C@@H]2[C@H]1OC (stereo not given in full)
- Activity [4]: 64%
- Activity (Brugia malayi [3]): inactive

SMILES: CCOC(=O)CC(NCCCCCCCCCCCCNC(CC(=O)OCC)C1O[C@@H]2OC(C)(C)O[C@@H]2[C@H]1OCc1ccccc1)C1O[C@H]2OC(C)(C)O[C@H]2[C@@H]1OCc1ccccc1 (stereo not given in full)
- Activity (Brugia malayi [3]): inactive

SMILES: CCCCCCCCCCCCCCCCNC(CC(=O)NO)C1O[C@H]2OC(C)(C)O[C@H]2[C@@H]1OC (stereo not given in full)
- Activity [4]: 214%
- inhibition at 100 µM (Brugia malayi [1]): 92%
- Activity (Brugia malayi [3]): Active

SMILES: CO[C@@H]1[C@H]2OC(C)(C)O[C@H]2O[C@@H]1C1CC(=O)N(c2ccc(Cl)cc2)C(=O)N1 (stereo not given in full)
- Activity [4]: 24%
- inhibition at 100 µM (Brugia malayi [1]): 52%
- Activity (Brugia malayi [3]): inactive

SMILES: COc1ccc(N(C(=O)NCc2ccccc2)[C@@H](CC(=O)O)C(=O)NC(CC(N)=O)C2O[C@H]3OC(C)(C)O[C@H]3[C@@H]2OC)cc1 (stereo not given in full)
- Activity (Brugia malayi [3]): inactive

SMILES: CCOc1ccc(N2C(=O)CC([C@H]3O[C@@H]4OC(C)(C)O[C@@H]4[C@H]3OC)N(c3ccco3)C2=O)cc1 (stereo not given in full)
- inhibition at 100 µM (Brugia malayi [1]): 34%
- inhibition at 10 min, 100 µM [2]: 26%
- Activity (Brugia malayi [3]): inactive

SMILES: CO[C@@H]1C(C(CC(N)=O)N(C(=O)Nc2ccccc2C)C(CC(N)=O)C2O[C@@H]3OC(C)(C)O[C@@H]3[C@H]2OC)O[C@H]2OC(C)(C)O[C@H]21 (stereo not given in full)
- inhibition at 100 µM (Brugia malayi [1]): 20%
- Activity (Brugia malayi [3]): inactive

SMILES: CC1(C)O[C@@H]2OC(CNCCCCCCCCCCCCNCC3O[C@@H]4OC(C)(C)O[C@@H]4[C@H]3OCc3ccccc3)[C@@H](OCc3ccccc3)[C@@H]2O1 (stereo not given in full)
- inhibition at 100 µM (Brugia malayi [1]): 94%
- Activity (Brugia malayi [3]): Active

SMILES: CC[C@H](C)[C@@H](C(=O)NC(CC(N)=O)C1O[C@H]2OC(C)(C)O[C@H]2[C@@H]1OC)N(C(=O)Nc1ccccc1C)c1ccco1 (stereo not given in full)
- Activity (Brugia malayi [3]): Active

SMILES: CC(=O)c1ccc(N2C(=O)CC([C@H]3O[C@@H]4OC(C)(C)O[C@@H]4[C@H]3OCc3ccccc3)NC2=O)cc1 (stereo not given in full)
- Activity [4]: 19%
- inhibition at 100 µM (Brugia malayi [1]): 27%
- Activity (Brugia malayi [3]): Active

SMILES: CO[C@@H]1[C@H]2OC(C)(C)O[C@H]2O[C@@H]1C1CC(=O)N(c2cccc(C#N)c2)C(=O)N1Cc1ccccc1 (stereo not given in full)
- inhibition at 10 min, 100 µM [2]: 32%
- Activity (Brugia malayi [3]): inactive

SMILES: CCCCN1C(=S)N(c2cccc(Cl)c2)C(=O)CC1[C@H]1O[C@@H]2OC(C)(C)O[C@@H]2[C@H]1OC (stereo not given in full)
- Activity [4]: 21%
- Activity (Brugia malayi [3]): Active

SMILES: CO[C@@H]1[C@H]2OC(C)(C)O[C@H]2O[C@@H]1C1CC(=O)N(c2ccc(Br)cc2)C(=O)N1c1ccco1 (stereo not given in full)
- inhibition at 100 µM (Brugia malayi [1]): 32%
- inhibition at 10 min, 100 µM [2]: 32%
- Activity (Brugia malayi [3]): inactive

SMILES: CO[C@@H]1[C@H]2OC(C)(C)O[C@H]2O[C@@H]1C1CC(=O)N(c2ccc(Cl)c(C)c2)C(=O)N1Cc1ccc(Br)cc1 (stereo not given in full)
- inhibition at 100 µM (Brugia malayi [1]): 45%
- Activity (Brugia malayi [3]): inactive

SMILES: COc1ccc(CN2C(=O)N(c3cccc(C(C)=O)c3)C(=O)CC2[C@H]2O[C@@H]3OC(C)(C)O[C@@H]3[C@H]2OC)cc1 (stereo not given in full)
- inhibition at 100 µM (Brugia malayi [1]): 59%
- inhibition at 10 min, 100 µM [2]: 41%
- Activity (Brugia malayi [3]): inactive

SMILES: CCOc1ccc(N2C(=O)CC([C@H]3O[C@@H]4OC(C)(C)O[C@@H]4[C@H]3OC)N(Cc3ccccc3)C2=O)cc1 (stereo not given in full)
- inhibition at 100 µM (Brugia malayi [1]): 50%
- Activity (Brugia malayi [3]): inactive

SMILES: CO[C@@H]1[C@H]2OC(C)(C)O[C@H]2O[C@@H]1C1CC(=O)N(c2cccc(C(C)=O)c2)C(=O)N1Cc1ccc(Br)cc1 (stereo not given in full)
- inhibition at 10 min, 100 µM [2]: 27%
- Activity (Brugia malayi [3]): inactive

SMILES: CO[C@@H]1[C@H]2OC(C)(C)O[C@H]2O[C@@H]1C1CC(=O)N(Cc2ccccc2)C(=O)N1Cc1ccc(Br)cc1 (stereo not given in full)
- Activity [4]: 41%
- Activity (Brugia malayi [3]): Active

SMILES: CCCCc1ccc(N2C(=O)CC([C@H]3O[C@@H]4OC(C)(C)O[C@@H]4[C@H]3OC)N(c3ccco3)C2=O)cc1 (stereo not given in full)
- inhibition at 100 µM (Brugia malayi [1]): 57%
- Activity (Brugia malayi [3]): inactive

SMILES: CCCCc1ccc(N2C(=O)CC([C@H]3O[C@@H]4OC(C)(C)O[C@@H]4[C@H]3OC)N(Cc3ccccc3)C2=O)cc1 (stereo not given in full)
- inhibition at 100 µM (Brugia malayi [1]): 76%
- inhibition at 10 min, 100 µM [2]: 13%
- Activity (Brugia malayi [3]): inactive

SMILES: COc1ccc(CN2C(=O)N(c3cccc(C(C)=O)c3)C(=O)CC2[C@H]2O[C@@H]3OC(C)(C)O[C@@H]3[C@H]2OCc2ccccc2)cc1 (stereo not given in full)
- Activity [4]: 13%
- Activity (Brugia malayi [3]): inactive

SMILES: CCOC(=O)CC(NCCCCCCCNC(CC(=O)OCC)C1O[C@@H]2OC(C)(C)O[C@@H]2[C@H]1OCc1ccccc1)C1O[C@H]2OC(C)(C)O[C@H]2[C@@H]1OCc1ccccc1 (stereo not given in full)
- Activity (Brugia malayi [3]): Active

SMILES: CC1(C)O[C@H]2O[C@H](C3CC(=O)N(Cc4ccccc4)C(=O)N3Cc3ccccc3)[C@H](OCc3ccccc3)[C@H]2O1 (stereo not given in full)
- Activity [4]: 13%
- inhibition at 100 µM (Brugia malayi [1]): 65%
- Activity (Brugia malayi [3]): inactive

SMILES: Cc1cc(N2C(=O)CC([C@H]3O[C@@H]4OC(C)(C)O[C@@H]4[C@H]3OCc3ccccc3)N(Cc3ccc(Br)cc3)C2=O)ccc1Cl (stereo not given in full)
- Activity (Brugia malayi [3]): Active

SMILES: CCOC(=O)CC(C1O[C@H]2OC(C)(C)O[C@H]2[C@@H]1OC)N(Cc1ccccc1O)C(=O)Nc1cccc(C(C)=O)c1 (stereo not given in full)
- inhibition at 100 µM (Brugia malayi [1]): 41%
- inhibition at 10 min, 100 µM [2]: 23%
- Activity (Brugia malayi [3]): Active

SMILES: CC1(C)O[C@@H]2OC(CNCCCCCCCNCC3O[C@@H]4OC(C)(C)O[C@@H]4[C@H]3OCc3ccccc3)[C@@H](OCc3ccccc3)[C@@H]2O1 (stereo not given in full)
- Activity (Brugia malayi [3]): inactive

SMILES: CCCCCCCCCCCCNC(CC(=O)NO)C1O[C@H]2OC(C)(C)O[C@H]2[C@@H]1OCc1ccccc1 (stereo not given in full)
- Activity [4]: 57%
- inhibition at 100 µM (Brugia malayi [1]): 98%
- Activity (Brugia malayi [3]): Active

SMILES: COC(=O)CC(NC(=S)Nc1ccccc1)C1O[C@H]2OC(C)(C)O[C@H]2[C@@H]1OCc1ccccc1 (stereo not given in full)
- inhibition at 100 µM (Brugia malayi [1]): 69%
- Activity (Brugia malayi [3]): Active

SMILES: CO[C@@H]1C(C(CC(N)=O)NC(=O)Nc2ccc(C)c(Cl)c2)O[C@H]2OC(C)(C)O[C@H]21 (stereo not given in full)
- Activity (Brugia malayi [3]): inactive

SMILES: CCOC(=O)CC(NC(=O)[C@@H]1CCCN1C(=O)OCC1c2ccccc2-c2ccccc21)C1O[C@H]2OC(C)(C)O[C@H]2[C@@H]1OC (stereo not given in full)
- Activity [4]: 197%
- inhibition at 100 µM (Brugia malayi [1]): 37%
- Activity (Brugia malayi [3]): Active

Reference: ChEMBL document CHEMBL3046834, “MODULATION OF FILARIAL GLUTATHIONE-S-TRANSFERASE(S) ACTIVITY: A POSSIBILITY TOWARDS THE SYNTHESIS OF NEW CLASSES OF ANTIFILARIAL AGENTS” (Med Chem Res, 2004)
